# Where two headings read alike, the source gives them in different places.
# Legend:
# [1] = pharmacokinetics after IV and IP administration; type: in vivo, Balb/c mice; conditions: for concentration at 0.25 h: 0.250 h
# [2] = target: MDA-9/IGF-1R interactions (Homo sapiens, UniProt O00560); assay: co-immunoprecipitation in DU145 and ARCaPM cells; type: cell-based; conditions: PDZ1i for 6 h
# Protocol: FIGS. 17A-17H. Effect of PDZ1i on invasion, MDA-9/IGF-R1 interaction and IGF-R1, STAT3 and SRC phosphorylation. FIG. 17A) Different cancer cells (25,000 cells/well) from various anatomic origins were pre-treated with either DMSO (vehicle) or PDZ1i (dose as indicated) and invasion ability was assayed using modified Boyden Chamber according to the manufacturer's instructions. Photomicrographs were taken at 10× magnification and quantification of the results of three independent experiments is provided in the graphs. The data presents mean±S.D. B) The designated cells were treated with DMSO or PDZ1i and invasion properties were determined using a modified Boyden Chamber assay (BD bioscience). RWPE-1 mda-9: mda-9 transiently overexpressing cell line. […] FIG. 17E) Cells were growth starved for 24 h and treated with either DMSO or PDZ1i (dose indicated in μM) for 6 h. Cells were treated with human recombinant IGFBP-2 (hIGFBP-2, 10 ng/ml) for 2 h, lysates were prepared and western blot analysis was conducted with specific antibodies. FIG. 17F) Cells were serum-starved for 24 h and treated with either DMSO or PDZ1i (20 μM) for 6 h. […] Cells were treated with human recombinant […] (hIGFBP-2, 1 ng/ml) for 2 h, cell lysates were prepared and analyzed by western blotting. […]
# Next, the effect of PDZ1i on MDA-9 and IGF-1R interactions was determined. […]
# GBM6 cells = assay: orthotopic GBM6 xenograft model; type: in vivo, mice
# Protocol: FIGS. 13A-13E. Effect of PDZ1i on survival in an in vivo model of glioma. GBM6 cells were pretreated for 2 hrs prior to intracranial injection with vehicle (DMSO) or PDZ1i and after 7 days, brain tissue was isolated and sectioned at injection site. FIG. 13A, brain tissue at site of injection of DMSO treated cells; FIG. 13B, brain tissue are site of injection of PDZ1i treated cells. 7 days after tumor implantation, mice received either vehicle or PDZ1i (30 mg/kg) three times per week for 3 weeks. Brain tissue was isolated and analyzed via H&E stain, FIG. 13C, brain tissue from mice treated with vehicle; FIG. 13D, brain tissue from mice treated with PDZ1i. FIG. 13E, Kaplan-Myer curves of these groups based on animal survival. **p<0.01.
# PDZ1i is effective in reducing tumor invasion in an animal model of GBM. To test the efficacy of PDZ1i, we used an orthotopic xenograft model with GBM6 cells that were pretreated with either DMSO or PDZ1i and injected intracranially to form tumors. Seven d post injection tumor and brain tissue were isolated for sectioning. […] Separately, untreated cells were injected and tumors established, then mice were treated IP with either DMSO or PDZ1i (30 mg/kg) three times per wk for two wk. […]
# [3] = Balb/c, mouse, plasma, IP 30 mg/kg
# [4] = Balb/c, mouse, plasma, IP 30 mg/kg, read-out: Plasma Concentration, Mean IP
# [5] = Balb/c, mouse, plasma, IV 3 mg/kg, read-out: Plasma Concentration, Mean IV
# MDA-9/IGF-1R interactions, sequence (O00560 2-298 limits assumed): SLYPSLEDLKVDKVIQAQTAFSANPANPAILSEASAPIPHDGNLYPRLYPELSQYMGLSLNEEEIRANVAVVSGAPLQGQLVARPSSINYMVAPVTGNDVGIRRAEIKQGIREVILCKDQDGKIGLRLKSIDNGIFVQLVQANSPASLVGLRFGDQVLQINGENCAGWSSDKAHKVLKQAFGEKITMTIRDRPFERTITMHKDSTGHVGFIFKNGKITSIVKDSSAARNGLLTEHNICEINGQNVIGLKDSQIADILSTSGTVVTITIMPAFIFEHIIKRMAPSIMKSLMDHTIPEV
compound,measurement,setting,value
"Cc1cc(NC(=O)c2nc3[nH]c4c(c(=O)n3n2)CCC4)c(C)cc1NC(=O)CCc1nnc(-c2ccccc2)o1 [113B7, N-(2,5-dimethyl-4-(3-(5-phenyl-1,3,4-oxadiazol-2-yl)propanamido)phenyl)-8-oxo-5,6,7,8-tetrahydro-4H-cyclopenta[d][1,2,4]triazolo[1,5-a]pyrimidine-2-carboxamide]",signs of toxicity during the PK experiment,"[1]; 3.0 mg/Kg IV and 30.0 mg/Kg IP, mice",lack of adverse signs of toxicity
same,half-life,"[1]; Balb/c, mouse, intravenous, intraperitoneal, in each route: 3.0 mg/Kg IV and 30.0 mg/Kg IP, mice, serum, read-out: T1/2 (very slow clearance)",> 9 h
same,bioavailability,"[1]; Balb/c, mouse, plasma, intraperitoneal, 30 mg/kg, IP 30 mg/kg versus IV 3 mg/kg, read-out: Bioavailability (IP/IV)",81.2%
same,AUC,"[1]; Balb/c, mouse, plasma, ip, 30 mg/kg, IP 30 mg/kg, read-out: AUC0-int (first line)",975 µg·h/mL
same,AUC,"[1]; Balb/c, mouse, plasma, ip, 30 mg/kg, IP 30 mg/kg, read-out: AUC0-int (second line)",1180 µg·h/mL
same,AUC,"[1]; Balb/c, mouse, plasma, iv, 3 mg/kg, IV 3 mg/kg, read-out: AUC0-int (first line)",120 µg·h/mL
same,AUC,"[1]; Balb/c, mouse, plasma, iv, 3 mg/kg, IV 3 mg/kg, read-out: AUC0-int (second line)",124 µg·h/mL
same,Cmax,[1]; [3],98200 ng/mL
same,Tmax,[1]; [3],0.25 h
same,concentration at 0.25 h,[1]; [4],98200 ng/mL
same,concentration at 1 h,[1]; [4],69200 ng/mL
same,concentration at 2 h,[1]; [4],59000 ng/mL
same,concentration at 6 h,[1]; [4],54600 ng/mL
same,concentration at 12 h,[1]; [4],42800 ng/mL
same,concentration at 24 h,[1]; [4],15100 ng/mL
same,half-life,"[1]; Balb/c, mouse, plasma, IP 30 mg/kg, read-out: T1/2 (converted)",9.42 h
same,C0,"[1]; Balb/c, mouse, plasma, IV 3 mg/kg",35000 ng/mL
same,concentration at 0.25 h,[1]; [5],29500 ng/mL
same,concentration at 1 h,[1]; [5],17700 ng/mL
same,concentration at 2 h,[1]; [5],11600 ng/mL
same,concentration at 6 h,[1]; [5],6110 ng/mL
same,concentration at 12 h,[1]; [5],3360 ng/mL
same,concentration at 24 h,[1]; [5],541 ng/mL
same,half-life,"[1]; Balb/c, mouse, plasma, IV 3 mg/kg, read-out: T1/2 (converted)",5.06 h
same,half-life,"[1]; Balb/c, mouse, serum, intravenous and intraperitoneal, in vivo, read-out: half-life (t1/2) (converted)",9 h
same,bioavailability,"[1]; Balb/c, mouse, serum, ip, 30 mg/kg, administered I.P. 30.0 mg/Kg, mice, read-out: bioavailability",80%
same,bioavailability,"[1]; administered I.P. 30.0 mg/Kg, mice, 30 mg/kg",~100%
same,MDA-9/IGF-1R interaction,[2],selectively inhibits
same,survival,GBM6 cells; PDZ1i 30 mg/kg IP three times per wk,significantly increased
same,tumor size and demarcation,"GBM6 cells; cells pretreated with PDZ1i, 7 d post intracranial injection",noticeably smaller and more demarcated neoplasms

# Reference: patent US11008325B2, “Inhibitors of cancer invasion, attachment, and/or metastasis” (VIRGINIA COMMONWEALTH UNIVERSITY, priority 2016, dated 2021)
